Measurements taken from patent US20250228242A1 (priority 2021, published 2025).
Counter-ions that a name gives are not always drawn.

Key:
Albugo laibachii [1] = test: Albugo laibachii growth on A. thaliana after syringe infiltration, quantified via qPCR; format: in vivo; conditions: for inhibition at 100 µM: Albugo laibachii, in Arabidopsis thaliana, qPCR at 7 dpi, A. thaliana; for inhibition of A. laibachii growth (in words): Table 4, qPCR at 7 dpi, p 5 0.05
Albugo laibachii [2] = test: Albugo laibachii on A. thaliana, syringe infiltration of compound, visual scoring of disease severity; format: in vivo; conditions: in Arabidopsis thaliana, 100 μM in 1% DMSO syringe infiltrated into adult A. thaliana, visually scored at nine dpi, read-out: A. laibachii Inhibitory effect
Description: (§1) A. thaliana seeds were stratified on moist soil (Einheitserde type A240, Stender, Germany) for seven days at 4° C. in darkness, before transfer into growth chambers with short day conditions (10 h light, 14 h darkness, 23/20° C., 60% humidity). After three weeks, seedlings were singularised and grown for three weeks further. After six weeks, A. thaliana plants were used for experiments and after infection they were transferred into SANYO (Panasonic MLR-352, Japan) growth cabinets (10 h light, 14 h darkness, 22/16° C.). Potato plants were grown from tubers by covering them with soil (Einheitserde type A240, Stender, Germany). The leaves of adult plants (˜4-6 weeks old) were cut off and kept in a moist environment for infection assays.
(§2) For regular Albugo sp. infections A. thaliana Ws-0 was sprayed with an Albugo sp. conidiospores solution. These spore solutions were prepared by harvesting sporulating leaf material at 14 days post infection (dpi) and adding water for rehydration of the spores. Spore solutions were hold on ice for ˜1 h, before filtering through miracloth (Merck Millipore, Germany) to remove dirt. Spores were counted and the solutions diluted to 22.2×10^4 conidiospores/ml. Albugo sp. spore solutions were sprayed uniformly on A. thaliana leaves (4.5 ml per six plants) using an airbrush gun. During spraying, plants were placed in a plastic bag and afterwards transferred into a cold room to incubate at 4° C. in darkness (˜16 h). The next morning, plants were transferred into plant growth cabinets, but left in clear bags to keep humidity high, which supports Albugo sp. infections. ˜24 h later plants were unbagged and further incubated under normal plant growth conditions.
(§3) Afterwards, the plants were kept in the lab for ˜1 h to let the leaves equilibrate again. The infiltrated plants were infected with Albugo sp., following the above-mentioned protocol. At 7 dpi, infiltrated leaves were phenotypically scored and harvested. The samples were frozen in liquid nitrogen and stored at −80° C. until DNA extraction for growth quantification via qPCR. For experiment 4, A. candida spore solutions were prepared as before and mixed with 10 mM stock solution of the test compound (100 μM end conc.). The mixture of spore solution and test compound was sprayed and incubated as for experiment 2 and 3.
(§4) • Fungicidal activity against other oomycetes was tested using isolates of the obligate biotrophic pathogen genus Albugo on Arabidopsis thaliana. The test compounds, 100 μM in 1% DMSO, were syringe infiltrated into adult A. thaliana and subsequently sprayed with aqueous spore solutions of Albugo laibachii or A. candida. In primary screenings, disease severity was visually screened and scored at nine days post infection (dpi) (Table 2+3).

Phytophthora infestans = test: whole plant or invertebrate; format: in vivo; conditions: in Solanum tuberosum, 120 h, read-out: P. infestans % inhibition
Albugo candida [3] = test: Albugo candida growth on A. thaliana after syringe infiltration, quantified via qPCR; format: in vivo; conditions: for inhibition at 100 µM: Albugo candida, in Arabidopsis thaliana, qPCR at 7 dpi, A. thaliana; for inhibition of A. candida growth (in words): Table 4, qPCR at 7 dpi
Rhodococcus sp. = test: Bacterial liquid culture growth curves (OD600), Rhodococcus sp.; conditions: 18.5 h, read-out: Absolute growth rate relative to mock control, Rhodococcus sp.
[4] = system: Pseudomonas syringae pv. tomato (Pto) DC3000; test: Bacterial liquid culture growth curves (OD600), Pto DC3000; conditions: 18.5 h, read-out: Absolute growth rate relative to mock control, Pto DC3000
Albugo candida [5] = test: Albugo candida on A. thaliana, syringe infiltration of compound, visual scoring of disease severity; format: in vivo; conditions: in Arabidopsis thaliana, read-out: A. candida Inhibitory effect
Description: as §1, §2, §3, §4

P. infestans = test: whole plant or invertebrate; format: in vivo; conditions: Phytophthora infestans, in Solanum tuberosum, read-out: P. infestans % inhibition
A. candida = A. candida growth on A. thaliana after spray application of spore solution mixed with compound, qPCR; format: in vivo, Albugo candida; conditions: for inhibition at 100 µM: Candida, in Arabidopsis thaliana, spray application of spore solution mixed with 100 μM compound in 1% DMSO, qPCR at 7 dpi, A. thaliana

For `Oc1ccc(-c2cc(-c3ccc(O)c(O)c3)on2)cc1` [Compound 22, 5-(3,4-Dihydroxyphenyl)-3-(4-hydroxyphenyl)isoxazole], the inhibition at 100 µM (Albugo laibachii [1]) was 49%, the “inhibition of A. laibachii growth (in words)” value (Albugo laibachii [1]) was “significantly inhibited” and the inhibition at 100 µM (Albugo laibachii [2]) was over 70%. For the same compound, the inhibition at 100 µM (Phytophthora infestans) was 63%, the inhibition at 100 µM (Albugo candida [3]) was 53% and the “inhibition of A. candida growth (in words)” value (Albugo candida [3]) was “strong inhibition”.

In the case of `Nc1ccc(-c2cc(-c3cccc(Br)c3)[nH]n2)cc1` [Compound 40, 3-(4-Aminophenyl)-5-(3-bromophenyl)-1H-pyrazole], the activity at 100 µM (Rhodococcus sp.) is reported as -1%, the activity at 100 µM [4] is reported as 91% and the inhibition at 100 µM (Albugo laibachii [2]) is reported as over 70%.

In the case of `Ic1cccc(-c2cc(-c3ccc4c(c3)OCO4)n[nH]2)c1` [Compound 8, 3-(1,3-Benzodioxol-5-yl)-5-(3-iodophenyl)-1H-pyrazole], the activity at 100 µM (Rhodococcus sp.) is reported as 35%, the activity at 100 µM [4] is reported as 100% and the inhibition at 100 µM (Albugo laibachii [2]) is reported as 5 to 30%.

In the case of `Brc1ccccc1-c1cc(-c2ccc3c(c2)OCO3)n[nH]1` [Compound 10, 3-(1,3-Benzodioxol-5-yl)-5-(2-bromophenyl)-1H-pyrazole], the activity at 100 µM (Rhodococcus sp.) is reported as 24%, the activity at 100 µM [4] is reported as 111% and the inhibition at 100 µM (Albugo laibachii [1]) is reported as 36%. For the same compound, the inhibition at 100 µM (Phytophthora infestans) was 82%, the inhibition at 100 µM (Albugo candida [3]) was 68% and the “inhibition of A. candida growth (in words)” value (Albugo candida [3]) was “strong inhibition”.

`Oc1ccc(-c2cc(-c3cccc(F)c3)[nH]n2)cc1O` [Compound 16, 3-(3,4-Dihydroxyphenyl)-5-(3-fluorophenyl)-1H-pyrazole] gave an activity at 100 µM (Rhodococcus sp.) of 0%, an activity at 100 µM [4] of 66% and an inhibition at 100 µM (Albugo laibachii [2]) of 30 to 70%.

With `Oc1cc(-c2cc(-c3cc(Br)cc(Br)c3)[nH]n2)cc(O)c1O` [Compound 6, 5-(3,5-Dibromophenyl)-3-(3,4,5-trihydroxyphenyl)-1H-pyrazole] the activity at 100 µM (Rhodococcus sp.) was 1%, the activity at 100 µM [4] was 73% and the inhibition at 100 µM (Albugo laibachii [2]) was over 70%.

`COc1ccc(-c2cc(-c3cccc(Br)c3)[nH]n2)cc1OC` [Compound 29, 5-(3-Bromophenyl)-3-(3,4-dimethoxyphenyl)-1H-pyrazole] was tested, and the activity at 100 µM (Rhodococcus sp.) was 62%, the activity at 100 µM [4] was 88% and the inhibition at 100 µM (Albugo laibachii [2]) was 30 to 70%.

Compound `FC(F)(F)c1cccc(-c2cc(-c3ccc4c(c3)OCO4)n[nH]2)c1` [Compound 11, 3-(1,3-Benzodioxol-5-yl)-5-[3-(trifluoromethyl)phenyl]-1H-pyrazole] has an activity at 100 µM (Rhodococcus sp.) of 110%, an activity at 100 µM [4] of 81% and an inhibition at 100 µM (Albugo laibachii [2]) of 5 to 30%.

Work on `Oc1ccc(-c2cc(-c3cc(O)c(O)c(O)c3)n[nH]2)cc1O` [Compound 5, 5-(3,4-Dihydroxyphenyl)-3-(3,4,5-trihydroxyphenyl)-1H-pyrazole] yielded an activity at 100 µM (Rhodococcus sp.) of 64%, an activity at 100 µM [4] of 40% and an inhibition at 100 µM (Albugo candida [5]) of over 70%. The inhibition at 100 µM (Phytophthora infestans) was 89%.

`Clc1cccc(-c2cc(-c3ccc4c(c3)OCO4)n[nH]2)c1` [Compound 35, 3-(1,3-Benzodioxol-5-yl)-5-(3-chlorophenyl)-1H-pyrazole] was tested, and the activity at 100 µM (Rhodococcus sp.) was 11%, the activity at 100 µM [4] was 85% and the inhibition at 100 µM (Albugo laibachii [2]) was 30 to 70%.

`Oc1cccc(-c2cc(-c3ccc4c(c3)OCO4)n[nH]2)c1` [Compound 34, 3-(1,3-Benzodioxol-5-yl)-5-(3-hydroxyphenyl)-1H-pyrazole] was tested, and the activity at 100 µM (Rhodococcus sp.) was -1%, the activity at 100 µM [4] was 56% and the inhibition at 100 µM (Albugo laibachii [2]) was 30 to 70%.

Compound `COc1ccc(-c2cc(-c3ccc(OC)c(OC)c3)on2)cc1` [Compound 19, 5-(3,4-Dimethoxyphenyl)-3-(4-methoxyphenyl)isoxazole] has an activity at 100 µM (Rhodococcus sp.) of 58%, an activity at 100 µM [4] of 95% and an inhibition at 100 µM (Albugo laibachii [1]) of 59%. For the same compound, the “inhibition of A. laibachii growth (in words)” value (Albugo laibachii [1]) was “significantly inhibited”, the inhibition at 100 µM (Albugo candida [5]) was over 70% and the inhibition at 100 µM (Phytophthora infestans) was 26%. The inhibition at 100 µM (Albugo candida [3]) was 70% and the “inhibition of A. candida growth (in words)” value (Albugo candida [3]) was “strong inhibition”.

`COc1ccc(-c2cc(-c3ccc(OC)c(OC)c3)on2)cc1OC` [Compound 43, 3,5-Bis(3,4-dimethoxyphenyl)isoxazole] showed an activity at 100 µM (Rhodococcus sp.) of 75%, an activity at 100 µM [4] of 114% and an inhibition at 100 µM (Albugo candida [5]) of over 70%.

`COc1cccc(-c2cc(-c3ccc4c(c3)OCO4)n[nH]2)c1` [Compound 9, 3-(1,3-Benzodioxol-5-yl)-5-(3-methoxyphenyl)-1H-pyrazole] gave an activity at 100 µM (Rhodococcus sp.) of 8%, an activity at 100 µM [4] of 100% and an inhibition at 100 µM (Albugo laibachii [2]) of 30 to 70%.

Work on `Oc1ccc(-c2c[nH]c(-c3ccc(O)c(O)c3)n2)cc1O` [Compound 28, 2,4-Bis(3,4-dihydroxyphenyl)-1H-imidazole hydrobromide] yielded an activity at 100 µM (Rhodococcus sp.) of 71%, an activity at 100 µM [4] of 49% and an inhibition at 100 µM (Albugo laibachii [1]) of 4%. It also gave an inhibition at 100 µM (Albugo laibachii [2]) of 30 to 70%, an inhibition at 100 µM (Phytophthora infestans) of 30% and an inhibition at 100 µM (Albugo candida [3]) of 49%.

Compound `Nc1ccc(-c2cc(-c3cccc(Cl)c3)[nH]n2)cc1` [Compound 39, 3-(4-Aminophenyl)-5-(3-chlorophenyl)-1H-pyrazole] has an activity at 100 µM (Rhodococcus sp.) of -1%, an activity at 100 µM [4] of 94% and an inhibition at 100 µM (Albugo laibachii [2]) of 30 to 70%.

In the case of `Brc1ccc(-c2cc(-c3ccc4c(c3)OCO4)n[nH]2)cc1` [Compound 38, 3-(1,3-Benzodioxol-5-yl)-5-(4-bromophenyl)-1H-pyrazole], the inhibition at 100 µM (Albugo laibachii [1]) is reported as 50%, the “inhibition of A. laibachii growth (in words)” value (Albugo laibachii [1]) is reported as “significantly inhibited” and the inhibition at 100 µM (Albugo laibachii [2]) is reported as over 70%. For the same compound, the inhibition at 100 µM (Albugo candida [3]) was 53% and the “inhibition of A. candida growth (in words)” value (Albugo candida [3]) was “strong inhibition”.

`Br.Oc1ccc(-c2cc(-c3ccc(Cl)cc3)[nH]n2)cc1` [Compound 36, 5-(4-Chlorophenyl)-3-(4-hydroxyphenyl)-1H-pyrazole hydrobromide] showed an activity at 100 µM (Rhodococcus sp.) of 9%, an activity at 100 µM [4] of 104% and an inhibition at 100 µM (P. infestans) of 85%. For the same compound, the inhibition at 100 µM (Albugo candida [5]) was over 70%, the inhibition at 100 µM (Phytophthora infestans) was 95% and the inhibition at 100 µM (A. candida) was 94%. For the same compound, the “growth inhibition of A. candida (in words)” value (A. candida; Table 5, spore solution mixed with compound, sprayed) was “strong growth inhibition”.

`CN(C)c1ccc(-c2cc(-c3cccc(Br)c3)[nH]n2)cc1` [Compound 13, 5-(3-Bromophenyl)-3-[4-(dimethylamino)phenyl]-1H-pyrazole] gave an inhibition at 100 µM (Albugo laibachii [2]) of over 70%.

`Oc1ccc(-c2cc(-c3cccc(Br)c3)[nH]n2)cc1O` [Compound 4, 5-(3-Bromophenyl)-3-(3,4-dihydroxyphenyl)-1H-pyrazole] showed an activity at 100 µM (Rhodococcus sp.) of -1%, an activity at 100 µM [4] of 48% and an inhibition at 100 µM (Albugo laibachii [2]) of 5 to 30%.

In the case of `Fc1cccc(-c2cc(-c3ccc4c(c3)OCO4)n[nH]2)c1` [Compound 7, 3-(1,3-Benzodioxol-5-yl)-5-(3-fluorophenyl)-1H-pyrazole], the activity at 100 µM (Rhodococcus sp.) is reported as 14%, the activity at 100 µM [4] is reported as 98% and the inhibition at 100 µM (Albugo laibachii [2]) is reported as 30 to 70%.

With `Br.Oc1ccc(-c2noc(-c3ccc(O)c(O)c3)n2)cc1O` [Compound 24, 3,5-Bis(3,4-Dihydroxyphenyl)-1,2,4-oxadiazole hydrobromide] the activity at 100 µM (Rhodococcus sp.) was 19%, the activity at 100 µM [4] was 95% and the inhibition at 100 µM (Albugo laibachii [1]) was 16%. It also gave an inhibition at 100 µM (Albugo candida [5]) of over 70%, an inhibition at 100 µM (Phytophthora infestans) of 80% and an inhibition at 100 µM (A. candida) of 41%. For the same compound, the inhibition at 100 µM (Albugo candida [3]) was 80% and the “inhibition of A. candida growth (in words)” value (Albugo candida [3]) was “strong inhibition”.

Compound `Cn1nc(-c2ccc3c(c2)OCO3)cc1-c1cccc(Br)c1` [Compound 41, 3-(1,3-Benzodioxol-5-yl)-5-(3-bromophenyl)-1-methyl-1H-pyrazole] has an activity at 100 µM (Rhodococcus sp.) of 62%, an activity at 100 µM [4] of 106% and an inhibition at 100 µM (Albugo laibachii [2]) of 30 to 70%.
